According to patent US20070117864A1, “Composition for preventing and treating hepatoma” (Tokyo University of Agr. & Tech. TLO Co., Ltd., priority 2003, published 2007):

Experiments:
[1] = liver lipid levels in hepatoma-bearing rats; assay type: in vivo, rat; conditions: mean ± SEM of 11 rats
Procedure: Male Donryu rats of four weeks old were purchased from NRC Haruna, Gumma, Japan, and were preliminarily fed for 6 days in quintuple cages in a room with a controlled environment with light period of 8:00 to 20:00, room temperature of 22±1° C., and relative humidity of 60±5%. For the first 3 days, the animals were fed ad libitum with a stock pellet diet (CE-2; CLEA Japan, Tokyo), and for the next 3 days, they were fed a basal diet containing 20% milk casein (20C) (Table 1) ad libitum together with tap water in a glass container. Following the completion of this preparatory raising, the rats were divided into three groups (11 animals per group) with equal average body weights of the respective groups were equal, and 1.0×10^7 of AH109A cells suspended in PBS (−) were transplanted in the back of all the rats. From the time immediately after transplantation, in the respective experimental groups, the animals were fed the experimental diets shown in Table 2.
During the experimental period, the body weight, food intake and solid tumor size (sum of length, width and height) were measured everyday. On the day that the animals were killed, animals were deprived of experimental diets at 9:00, but freely given water until they were killed 4 hours later. Blood was collected from carotid, and the liver and solid tumors were excised. The collected blood was allowed to stand for approximately 2 hours at room temperature, and then centrifuged for 10 minutes at 3000 rpm (1750×g), 4° C., to obtain serum. This blood serum was frozen and stored at −20° C. The livers and solid tumors were washed with physiological saline, blotted on filter paper, and weighed. Furthermore, feces from the 19th to 21st days after transplantation were collected, and these feces were frozen and stored at −20° C. for the measurement of the amounts of steroids excreted from the body.
Total lipids were extracted from the liver for the measurement of lipid levels by the method of Folch et al. (FOLCH J, LEES M, SLOAN-STANLEY G H, A simple method for the isolation and purification of total lipids from animal tissues, J. Biol. Chem. 226: 497-509, 1957). Approximately 0.5 g of liver tissue was weighed out, this tissue was homogenized using a Polytron homogenizer (Type PT10/35, Kinematica, Switzerland) in 5 ml of methanol; then, 10 ml of chloroform was added and mixed, the resulting preparation was allowed to stand overnight, and then filtered. […]
The Ch content was measured by the Zak method (Zak B., Simple rapid microtechnic for serum total cholesterol, Am. J. Clin. Path. 27, 583-588, 1957). […] The resulting mixture was agitated and this preparation was allowed to stand until cool; then, the absorbance at 560 nm thereof was measured with Ch as a standard. […]

[2] = test system: AH109A cells; test: apoptosis of AH109A cells by flow cytometry, Annexin V/PI double staining; assay type: cell-based, rat; conditions: for proportion of the fourth quadrant (early stage of apoptosis) / proportion of the second quadrant (secondary necrosis) / proportion of the third quadrant (live cells): 3 hours
Procedure: The analysis was performed using an ANNEXIN V FITC kit (IMMUNOTECH, Marseille, France). AH109A cells were inoculated at the density of 1×10^6 cells with 3 ml of the experimental medium in a dish with 6 cm in diameter (NUNC), and the cells were cultured for 0, 3 and 6 hours in a CO2 incubator at 37° C. The AH109A cells cultured under the respective treatment conditions were recovered, centrifuged for 5 minutes at 4° C. at 1000 rpm (90×g), and washed once with PBS (−). Subsequently, the cells was suspended in 490 μl of a binding buffer, and 5 μl of a PI solution and 5 μl of ANNEXIN V FITC, and these substances were gently mixed. The cells were stained by allowing the preparation to stand quietly for 10 minutes on ice with the light blocked. The apoptosis of the cells was analyzed using a flow cytometer (EPICS ELITE ESP; Beckman-Coulter, Hialeah, Fla., USA).

O=C1OCC(Cc2cccc(O)c2)C1Cc1cccc(O)c1 (stereo not shown) [Enterolactone, enterolactone]
Liver lipid level Total cholesterol ([1]; diet 10 ppm): 5.15 ± 0.43 μmol/g liver
Liver lipid level Triglyceride ([1]; diet 10 ppm): 43.8 ± 3.83 μmol/g liver
Liver lipid level Total cholesterol ([1]; diet 100 ppm): 5.47 ± 0.40 μmol/g liver
Liver lipid level Triglyceride ([1]; diet 100 ppm): 42.8 ± 7.05 μmol/g liver
proportion of the fourth quadrant (early stage of apoptosis) ([2]; 6.25 μM ENL): 8.4%
proportion of the second quadrant (secondary necrosis) ([2]; 6.25 μM ENL): 2.8%
proportion of the third quadrant (live cells) ([2]; 6.25 μM ENL): 88.1%
proportion of the fourth quadrant (early stage of apoptosis) ([2]; 12.5 μM ENL): 11.4%
proportion of the second quadrant (secondary necrosis) ([2]; 12.5 μM ENL): 2.3%
proportion of the third quadrant (live cells) ([2]; 12.5 μM ENL): 86.1%
proportion of cells in the early stage of apoptosis ([2]; 6.25 and 12.5 μM ENL): increased
proportion of cells showing secondary necrosis ([2]; 6.25 and 12.5 μM ENL): increased to some extent
proportion of live cells ([2]; 6.25 and 12.5 μM ENL): decreased in a dose-dependent manner
